The structures appear in SMILES notation.

From ChEMBL document CHEMBL3508140 (2016) come the findings set out here.

Data set [1] is described as follows: Recovery of 7-deoxy doxorubicin-aglycone following intraperitoneal epirubicin at 4 mg.Kg-1 dose in hamster. The note with it: chinese hamster, in vivo, ip. Format: ADME, organism-based, Cricetulus griseus, Plasma.
A short description of data set [2]: Recovery of 7-deoxy doxorubicin-aglycone following intravenous epirubicin at 4 mg.Kg-1 dose in rabbit. To be noted: in vivo. Format: ADME, organism-based, Oryctolagus cuniculus, New Zealand White, Plasma.
A short description of data set [3]: AUC values (0-48 h) of 7-deoxydoxorubicin aglycone in tumor following single intravenous epirubicin at 10 mg.Kg-1 dose in female mouse bearing colon tumor. Format: ADME, organism-based, BALB/c, Neoplasm. To be noted: in vivo.
A short description of data set [4]: Detection of 7-deoxy epirubicin-aglycone in plasma following single intravenous epirubicin at 10 mg.Kg-1 dose in female mouse bearing colon tumor. Format: ADME, organism-based, BALB/c. To be noted: in vivo.
The nature of data set [5]: AUC values (0-48 h) of 7-deoxydoxorubicin aglycone in heart following single intravenous doxorubicin at 10 mg.Kg-1 dose in female mouse bearing colon tumor. The note with it: in vivo. Also noted: time < 48 hr, dose 10 mg.Kg-1, dosed compound id 2.46809e+06, dosed compound name Doxorubicin, gender F, regimen Single, route intravenous, sampling time 48 h. Format: ADME, organism-based, BALB/c.

Data set [6] is described as follows: Recovery of 7-deoxy doxorubicin-aglycone following intraperitoneal epirubicin at 4 mg.Kg-1 dose in mouse. The note with it: in vivo, ip. The data set is classed as ADME, organism-based, CD-1, Plasma.
A short description of data set [7]: Detection of 7-deoxy epirubicin-aglycone in heart following single intravenous epirubicin at 10 mg.Kg-1 dose in female mouse bearing colon tumor. To be noted: in vivo. The data set is classed as ADME, organism-based, BALB/c.
A short description of data set [8]: Detection of 7-deoxy epirubicin-aglycone in tumor following single intravenous epirubicin at 10 mg.Kg-1 dose in female mouse bearing colon tumor. The note with it: in vivo. Format: ADME, organism-based, BALB/c, Neoplasm.
The nature of data set [9]: AUC values (0-48 h) of 7-deoxydoxorubicin aglycone in heart following single intravenous epirubicin at 10 mg.Kg-1 dose in female mouse bearing colon tumor. The data set is classed as ADME, organism-based, BALB/c. To be noted: in vivo.
Data set [10] can be described thus: AUC values (0-48 h) of 7-deoxydoxorubicin aglycone in plasma following single intravenous epirubicin at 10 mg.Kg-1 dose in female mouse bearing colon tumor. The data set is classed as ADME, organism-based, BALB/c. To be noted: in vivo.
A short description of data set [11]: Recovery of 7-deoxy doxorubicin-aglycone following intravenous epirubicin at 1.5 mg.Kg-1 dose in man. The data set is classed as ADME, organism-based, Plasma. The note with it: human, in vivo.
Data set [12] in a line: Detection of 7-deoxy doxorubicin-aglycone in plasma following single intravenous doxorubicin at 10 mg.Kg-1 dose in female mouse bearing colon tumor. Also noted: dose 10 mg.Kg-1, dosed compound id 2.46809e+06, dosed compound name Doxorubicin, gender F, regimen Single, route intravenous, sampling time 48 h. The note with it: in vivo. Format: ADME, organism-based, BALB/c.
Data set [13] can be described thus: AUC values (0-48 h) of 7-deoxydoxorubicin aglycone in tumor following single intravenous doxorubicin at 10 mg.Kg-1 dose in female mouse bearing colon tumor. The data set is classed as ADME, organism-based, BALB/c, Neoplasm. Also noted: time < 48 hr, dose 10 mg.Kg-1, dosed compound id 2.46809e+06, dosed compound name Doxorubicin, gender F, regimen Single, route intravenous, sampling time 48 h. To be noted: in vivo.

Data set [14] in a line: Detection of 7-deoxy doxorubicin-aglycone in heart following single intravenous doxorubicin at 10 mg.Kg-1 dose in female mouse bearing colon tumor. Format: ADME, organism-based, BALB/c. To be noted: in vivo. Also noted: dose 10 mg.Kg-1, dosed compound id 2.46809e+06, dosed compound name Doxorubicin, gender F, regimen Single, route intravenous, sampling time 48 h.
Data set [15] can be described thus: Detection of 7-deoxy doxorubicin-aglycone in tumor following single intravenous doxorubicin at 10 mg.Kg-1 dose in female mouse bearing colon tumor. Format: ADME, organism-based, BALB/c, Neoplasm. Also noted: dose 10 mg.Kg-1, dosed compound id 2.46809e+06, dosed compound name Doxorubicin, gender F, regimen Single, route intravenous, sampling time 48 h. To be noted: in vivo.

The nature of data set [16]: Recovery of 7-deoxy doxorubicin-aglycone following intravenous epirubicin at 4 mg.Kg-1 dose in rat. Format: ADME, organism-based, SD, Plasma. To be noted: in vivo.
Data set [17] in a line: AUC values (0-48 h) of 7-deoxydoxorubicin aglycone in plasma following single intravenous doxorubicin at 10 mg.Kg-1 dose in female mouse bearing colon tumor. The data set is classed as ADME, organism-based, BALB/c. Also noted: time < 48 hr, dose 10 mg.Kg-1, dosed compound id 2.46809e+06, dosed compound name Doxorubicin, gender F, regimen Single, route intravenous, sampling time 48 h. To be noted: in vivo.

For the compound `COc1cccc2c1C(=O)c1c(O)c3c(c(O)c1C2=O)C[C@@](O)(C(=O)CO)CC3`, the Compound recovery was 1.3 10^-9M in data set [1]; 0 10^-9M in [2]; “OUTCOME = Observed” in data set [4]; 0 10^-9M in data set [6]; “OUTCOME = Observed” in [7]; “OUTCOME = Observed” in data set [8]. For the same compound, the Compound recovery is recorded as 14 10^-9M in data set [11]; “OUTCOME = Observed” in data set [12]; “OUTCOME = Observed” in data set [14]; “OUTCOME = Observed” in [15]; 0 10^-9M in [16]. Further, the AUC in data set [3] worked out at 11 nmol·min/g; in [5], 152 nmol·min/g; in data set [9] it was 49 nmol·min/g; in data set [10], 1.6 nmol·min/mL; in [13], 135 nmol·min/g; in data set [17] it was 4.1 nmol·min/mL.
